Assays:
[1] = NMR stability study in relation to a 22 mM succinate buffer reference; assay type: physicochemical
Description: The stability of the beta-lactamase substrate compounds over time at different temperatures was tested the reference HMRZ-86 of example 1 (at 1.2 mM) and the beta-lactamase substrate compound with R being 2-nitro-4-cyano of Example 1 (at 2.4 mM).
The stability of both beta-lactamase substrate compounds was also tested in relation to a 22 mM succinate buffer reference. […] Contrary to the dimethylformamide (DMF) reference, the degradation in relation to the succinate buffer was similar for both substrate compounds, with the first degradation starting after 2 weeks at both temperatures.

KPC-33 = KPC-33 (Klebsiella pneumoniae, UniProt Q9F663, D178Y); test: Reactivity with recombinant enzyme, amperometric; assay type: biochemical; details: class A carbapenemase, protein; CF3 compound 2.4 mM, HMRZ-86 1.2 mM; 10 minutes at 37° C.
OXA-51 = test: Reactivity with recombinant enzyme, amperometric; assay type: biochemical; details: class D carbapenemase, protein; CF3 compound 2.4 mM, HMRZ-86 1.2 mM; 10 minutes at 37° C.

Row | SMILES | time at which the first degradation starts ([1]; 4° C.) [weeks] | time at which the first degradation starts ([1]; 20° C.) [weeks] | reactivity (detection) (KPC-33) | reactivity (detection) (OXA-51)
1 | CC(C)(ON=C(C(=O)N[C@@H]1C(=O)N2C(C(=O)O)=C(C=Cc3ccc([N+](=O)[O-])cc3[N+](=O)[O-])CS[C@H]12)c1csc(N)n1)C(=O)O.O=C(O)C(F)(F)F [HMRZ-86, reference compound] | 2 | 2 | Detected | Not detected
2 | N#Cc1ccc(C=CC2=C(C(=O)O)N3C(=O)C(NC(=O)C(F)(F)F)C3SC2)cc1 (stereo not drawn) [CF3] |  |  | Detected | Detected

Reference: patent US20260259169A1, “BETA-LACTAMASE SUBSTRATE COMPOUNDS AND ELECTROCHEMICAL DETECTION METHODS USING THEM” (priority 2023, published 2026)
